Like-named read-outs stand apart in the source and are kept apart here.
How the values were obtained:
Assay in all cases: Kinase panel
Type in all cases: biochemical
Axl(h) = target: T1, Axl(h) (Homo sapiens, UniProt P30530)
T1 construct: purchased Millipore KinaseProfiler
T1 sequence (P30530 26-894): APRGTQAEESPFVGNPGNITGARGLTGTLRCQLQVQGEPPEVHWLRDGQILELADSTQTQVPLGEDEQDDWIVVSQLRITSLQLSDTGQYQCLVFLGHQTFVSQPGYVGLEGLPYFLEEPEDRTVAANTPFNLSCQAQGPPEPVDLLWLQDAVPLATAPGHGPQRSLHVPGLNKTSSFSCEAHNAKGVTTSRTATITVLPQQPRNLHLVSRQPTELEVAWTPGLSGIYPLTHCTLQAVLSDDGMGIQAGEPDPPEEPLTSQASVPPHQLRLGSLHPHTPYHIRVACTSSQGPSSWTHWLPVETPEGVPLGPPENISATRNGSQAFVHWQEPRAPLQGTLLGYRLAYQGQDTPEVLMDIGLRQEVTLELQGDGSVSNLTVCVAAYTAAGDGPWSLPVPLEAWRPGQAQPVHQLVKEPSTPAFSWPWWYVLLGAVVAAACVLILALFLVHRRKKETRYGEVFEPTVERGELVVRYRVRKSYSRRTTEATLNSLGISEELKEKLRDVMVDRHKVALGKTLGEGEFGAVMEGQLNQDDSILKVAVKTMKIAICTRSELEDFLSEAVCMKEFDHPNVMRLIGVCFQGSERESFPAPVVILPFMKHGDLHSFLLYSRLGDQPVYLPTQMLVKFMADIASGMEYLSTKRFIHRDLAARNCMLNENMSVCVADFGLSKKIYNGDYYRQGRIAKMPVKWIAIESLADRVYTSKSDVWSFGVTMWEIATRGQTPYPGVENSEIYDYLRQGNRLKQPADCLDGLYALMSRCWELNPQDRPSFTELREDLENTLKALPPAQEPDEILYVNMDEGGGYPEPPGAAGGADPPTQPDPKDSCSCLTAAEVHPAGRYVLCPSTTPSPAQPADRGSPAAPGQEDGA

CaMKIIγ(h) = target: T2, CaMKIIγ(h) (Homo sapiens, UniProt Q13555)
T2 construct: purchased Millipore KinaseProfiler

cKit(V654A)(h) = target: T3, cKit(V654A)(h) (Homo sapiens, UniProt P10721, V654A)
T3 construct: purchased Millipore KinaseProfiler
T3 sequence (P10721 26-976 V654A): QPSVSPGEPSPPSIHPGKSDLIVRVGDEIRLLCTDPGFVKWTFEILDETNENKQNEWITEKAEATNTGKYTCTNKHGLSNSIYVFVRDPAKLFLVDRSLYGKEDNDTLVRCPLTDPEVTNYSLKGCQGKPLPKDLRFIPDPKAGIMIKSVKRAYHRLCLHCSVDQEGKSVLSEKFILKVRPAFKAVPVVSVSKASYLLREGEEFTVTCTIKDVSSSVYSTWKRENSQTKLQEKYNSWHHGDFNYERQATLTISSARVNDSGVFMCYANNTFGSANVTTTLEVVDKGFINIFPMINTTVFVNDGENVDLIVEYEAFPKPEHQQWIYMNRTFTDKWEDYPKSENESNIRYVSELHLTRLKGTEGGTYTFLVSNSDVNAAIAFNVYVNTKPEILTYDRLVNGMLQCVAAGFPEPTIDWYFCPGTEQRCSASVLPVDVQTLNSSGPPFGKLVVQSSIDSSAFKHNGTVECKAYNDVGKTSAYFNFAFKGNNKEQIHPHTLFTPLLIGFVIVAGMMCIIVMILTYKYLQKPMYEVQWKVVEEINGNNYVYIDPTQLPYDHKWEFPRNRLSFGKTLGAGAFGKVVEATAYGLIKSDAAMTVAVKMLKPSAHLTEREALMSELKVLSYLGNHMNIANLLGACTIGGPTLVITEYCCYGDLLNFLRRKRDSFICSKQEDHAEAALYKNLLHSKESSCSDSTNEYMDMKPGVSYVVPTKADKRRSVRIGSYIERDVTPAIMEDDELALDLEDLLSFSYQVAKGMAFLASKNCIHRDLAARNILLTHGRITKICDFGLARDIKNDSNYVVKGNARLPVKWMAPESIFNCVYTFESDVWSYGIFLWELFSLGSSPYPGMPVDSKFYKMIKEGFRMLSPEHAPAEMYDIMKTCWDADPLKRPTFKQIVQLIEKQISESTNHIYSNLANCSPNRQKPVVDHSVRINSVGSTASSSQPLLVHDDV

ErbB4(h) = target: T4, ErbB4(h) (Homo sapiens, UniProt Q15303)
T4 construct: purchased Millipore KinaseProfiler
T4 sequence (Q15303 26-1308): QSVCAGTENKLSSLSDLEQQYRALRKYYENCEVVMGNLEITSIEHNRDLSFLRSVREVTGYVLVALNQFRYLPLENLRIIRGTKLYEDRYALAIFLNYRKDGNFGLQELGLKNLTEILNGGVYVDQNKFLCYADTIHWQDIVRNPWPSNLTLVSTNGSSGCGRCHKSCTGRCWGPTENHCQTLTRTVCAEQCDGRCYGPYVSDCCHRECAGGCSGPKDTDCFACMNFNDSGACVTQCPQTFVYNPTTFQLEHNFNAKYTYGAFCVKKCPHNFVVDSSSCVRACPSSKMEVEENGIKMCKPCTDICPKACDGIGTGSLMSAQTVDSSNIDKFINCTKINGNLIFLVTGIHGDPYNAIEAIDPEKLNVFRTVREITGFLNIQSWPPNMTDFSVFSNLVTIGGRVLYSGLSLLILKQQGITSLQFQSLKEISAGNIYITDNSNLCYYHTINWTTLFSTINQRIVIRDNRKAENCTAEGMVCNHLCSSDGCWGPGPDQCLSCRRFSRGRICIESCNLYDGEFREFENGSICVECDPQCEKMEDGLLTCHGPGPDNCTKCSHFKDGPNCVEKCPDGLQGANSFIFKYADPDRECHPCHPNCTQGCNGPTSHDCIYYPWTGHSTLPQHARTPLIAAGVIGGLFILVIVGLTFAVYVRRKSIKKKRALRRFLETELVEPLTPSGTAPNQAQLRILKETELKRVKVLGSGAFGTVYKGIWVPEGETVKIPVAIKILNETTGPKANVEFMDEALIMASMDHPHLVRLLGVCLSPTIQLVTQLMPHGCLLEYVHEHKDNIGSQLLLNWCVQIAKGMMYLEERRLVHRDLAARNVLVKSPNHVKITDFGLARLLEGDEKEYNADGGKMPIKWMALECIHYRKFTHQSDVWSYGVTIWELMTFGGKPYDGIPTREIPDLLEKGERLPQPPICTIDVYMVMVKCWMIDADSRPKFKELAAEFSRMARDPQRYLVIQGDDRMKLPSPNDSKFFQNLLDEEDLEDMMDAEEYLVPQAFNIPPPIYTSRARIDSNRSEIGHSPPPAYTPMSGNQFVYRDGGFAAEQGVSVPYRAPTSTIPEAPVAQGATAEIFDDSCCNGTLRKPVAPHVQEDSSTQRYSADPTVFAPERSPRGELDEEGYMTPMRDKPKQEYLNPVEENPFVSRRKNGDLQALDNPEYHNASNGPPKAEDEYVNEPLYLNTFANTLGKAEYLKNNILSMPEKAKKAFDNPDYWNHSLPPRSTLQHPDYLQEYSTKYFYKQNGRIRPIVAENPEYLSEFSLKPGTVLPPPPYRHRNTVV

MAPKAP-K2(h) = target: T5, MAPKAP-K2(h) (Homo sapiens, UniProt P49137)
T5 construct: purchased Millipore KinaseProfiler

MELK(h) = target: T6, MELK(h) (Homo sapiens, UniProt Q14680)
T6 construct: purchased Millipore KinaseProfiler
T6 sequence (Q14680 whole entry): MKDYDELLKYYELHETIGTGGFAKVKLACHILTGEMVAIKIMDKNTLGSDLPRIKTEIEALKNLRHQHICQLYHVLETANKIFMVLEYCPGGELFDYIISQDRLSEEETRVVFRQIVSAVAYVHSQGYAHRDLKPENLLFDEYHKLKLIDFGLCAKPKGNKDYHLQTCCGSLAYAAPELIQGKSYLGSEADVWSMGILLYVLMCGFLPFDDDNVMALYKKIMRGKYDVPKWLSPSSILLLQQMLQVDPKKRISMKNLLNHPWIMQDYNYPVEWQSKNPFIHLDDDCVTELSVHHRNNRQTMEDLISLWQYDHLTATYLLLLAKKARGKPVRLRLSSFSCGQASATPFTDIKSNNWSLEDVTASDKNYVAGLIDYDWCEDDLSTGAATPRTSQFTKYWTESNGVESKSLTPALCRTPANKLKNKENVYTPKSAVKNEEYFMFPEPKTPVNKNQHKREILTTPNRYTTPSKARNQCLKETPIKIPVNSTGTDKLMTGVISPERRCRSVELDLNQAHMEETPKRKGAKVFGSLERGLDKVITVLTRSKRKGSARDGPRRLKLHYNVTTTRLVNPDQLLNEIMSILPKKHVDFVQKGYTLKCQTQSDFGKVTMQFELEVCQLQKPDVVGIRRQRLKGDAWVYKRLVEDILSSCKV

Met(h) = target: T7, Met(h) (Homo sapiens, UniProt P08581)
T7 construct: purchased Millipore KinaseProfiler

PhKγ2(h) = target: T8, PhKγ2(h) (Homo sapiens, UniProt P15735)
T8 construct: purchased Millipore KinaseProfiler
T8 sequence (P15735 1-406): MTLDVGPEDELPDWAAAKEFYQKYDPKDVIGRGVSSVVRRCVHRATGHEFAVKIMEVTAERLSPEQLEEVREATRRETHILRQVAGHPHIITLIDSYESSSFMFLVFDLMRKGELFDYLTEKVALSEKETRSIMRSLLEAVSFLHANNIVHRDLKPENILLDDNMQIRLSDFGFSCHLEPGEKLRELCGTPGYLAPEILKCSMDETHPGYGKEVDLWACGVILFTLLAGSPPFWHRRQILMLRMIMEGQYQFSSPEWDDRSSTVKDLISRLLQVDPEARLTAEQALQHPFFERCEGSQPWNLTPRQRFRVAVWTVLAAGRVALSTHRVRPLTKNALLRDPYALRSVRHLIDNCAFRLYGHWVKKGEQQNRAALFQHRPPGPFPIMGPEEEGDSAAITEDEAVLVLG

PKCβI(h) = target: T9, PKCβI(h) (Homo sapiens, UniProt P05771)
T9 construct: purchased Millipore KinaseProfiler
T9 sequence (P05771 whole entry): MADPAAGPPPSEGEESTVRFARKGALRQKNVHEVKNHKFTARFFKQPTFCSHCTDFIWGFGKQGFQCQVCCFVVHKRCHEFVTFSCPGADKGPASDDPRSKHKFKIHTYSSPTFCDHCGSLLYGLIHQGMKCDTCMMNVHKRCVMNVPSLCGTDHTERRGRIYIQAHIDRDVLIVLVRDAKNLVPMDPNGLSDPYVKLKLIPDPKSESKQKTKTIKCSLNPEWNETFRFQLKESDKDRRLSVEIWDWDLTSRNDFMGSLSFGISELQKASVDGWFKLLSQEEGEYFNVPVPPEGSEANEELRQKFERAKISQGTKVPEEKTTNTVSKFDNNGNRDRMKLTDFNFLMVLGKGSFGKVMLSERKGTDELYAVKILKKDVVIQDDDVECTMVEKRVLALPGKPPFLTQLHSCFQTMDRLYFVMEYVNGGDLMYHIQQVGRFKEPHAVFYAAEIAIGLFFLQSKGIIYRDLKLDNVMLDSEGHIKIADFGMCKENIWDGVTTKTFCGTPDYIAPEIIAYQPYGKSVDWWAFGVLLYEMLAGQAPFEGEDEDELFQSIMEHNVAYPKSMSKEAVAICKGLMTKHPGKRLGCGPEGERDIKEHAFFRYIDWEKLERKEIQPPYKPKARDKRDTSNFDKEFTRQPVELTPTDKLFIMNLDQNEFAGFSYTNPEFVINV

PKCδ(h) = target: T10, PKCδ(h) (Homo sapiens, UniProt Q05655)
T10 construct: purchased Millipore KinaseProfiler
T10 sequence (Q05655 whole entry): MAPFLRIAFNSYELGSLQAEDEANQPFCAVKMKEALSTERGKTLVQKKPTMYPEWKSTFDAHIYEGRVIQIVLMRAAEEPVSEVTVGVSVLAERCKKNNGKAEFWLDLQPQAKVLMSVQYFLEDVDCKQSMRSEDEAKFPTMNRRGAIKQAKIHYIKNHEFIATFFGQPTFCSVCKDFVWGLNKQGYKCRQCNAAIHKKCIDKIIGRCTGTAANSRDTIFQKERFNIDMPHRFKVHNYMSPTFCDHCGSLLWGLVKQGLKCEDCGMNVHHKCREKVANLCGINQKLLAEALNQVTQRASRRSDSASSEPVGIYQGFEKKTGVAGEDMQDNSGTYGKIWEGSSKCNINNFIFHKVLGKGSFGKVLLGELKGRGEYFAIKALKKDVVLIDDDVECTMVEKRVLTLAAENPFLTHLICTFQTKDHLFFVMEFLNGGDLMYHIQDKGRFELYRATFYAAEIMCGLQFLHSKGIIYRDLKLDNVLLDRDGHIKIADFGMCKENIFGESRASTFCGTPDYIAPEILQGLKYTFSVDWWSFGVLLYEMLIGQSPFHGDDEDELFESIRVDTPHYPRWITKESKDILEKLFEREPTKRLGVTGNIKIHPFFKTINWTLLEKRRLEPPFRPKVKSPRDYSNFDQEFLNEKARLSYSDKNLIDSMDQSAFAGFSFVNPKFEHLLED

PKCη(h) = target: T11, PKCη(h) (Homo sapiens, UniProt P24723)
T11 construct: purchased Millipore KinaseProfiler
T11 sequence (P24723 whole entry): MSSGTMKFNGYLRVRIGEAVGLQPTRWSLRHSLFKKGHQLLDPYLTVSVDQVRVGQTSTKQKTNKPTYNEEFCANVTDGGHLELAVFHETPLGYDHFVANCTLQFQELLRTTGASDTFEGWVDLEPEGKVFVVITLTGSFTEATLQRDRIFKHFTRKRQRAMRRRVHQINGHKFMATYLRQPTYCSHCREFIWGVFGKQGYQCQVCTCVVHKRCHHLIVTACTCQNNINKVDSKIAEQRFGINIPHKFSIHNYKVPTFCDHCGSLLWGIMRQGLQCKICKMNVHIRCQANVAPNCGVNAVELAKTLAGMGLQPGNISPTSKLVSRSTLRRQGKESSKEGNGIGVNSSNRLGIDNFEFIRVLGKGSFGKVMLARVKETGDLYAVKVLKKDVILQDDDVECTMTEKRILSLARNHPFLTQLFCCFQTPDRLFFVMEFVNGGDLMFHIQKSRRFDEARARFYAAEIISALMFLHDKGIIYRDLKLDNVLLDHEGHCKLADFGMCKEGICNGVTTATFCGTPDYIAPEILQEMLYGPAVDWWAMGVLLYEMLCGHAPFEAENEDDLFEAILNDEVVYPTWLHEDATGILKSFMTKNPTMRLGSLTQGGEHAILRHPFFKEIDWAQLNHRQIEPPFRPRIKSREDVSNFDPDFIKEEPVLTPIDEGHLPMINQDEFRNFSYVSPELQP

TSSK2(h) = target: T12, TSSK2(h) (Homo sapiens, UniProt Q96PF2)
T12 construct: purchased Millipore KinaseProfiler
T12 sequence (Q96PF2 1-358): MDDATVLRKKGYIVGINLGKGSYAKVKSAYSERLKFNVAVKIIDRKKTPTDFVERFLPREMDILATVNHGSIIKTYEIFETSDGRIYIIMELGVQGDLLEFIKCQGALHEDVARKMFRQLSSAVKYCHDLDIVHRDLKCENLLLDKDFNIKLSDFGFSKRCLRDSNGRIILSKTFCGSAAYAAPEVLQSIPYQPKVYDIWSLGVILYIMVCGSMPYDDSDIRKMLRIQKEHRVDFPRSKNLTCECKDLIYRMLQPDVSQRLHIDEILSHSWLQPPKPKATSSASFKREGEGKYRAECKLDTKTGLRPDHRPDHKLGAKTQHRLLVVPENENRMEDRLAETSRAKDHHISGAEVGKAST

WNK3(h) = target: T13, WNK3(h) (Homo sapiens, UniProt Q9BYP7)
T13 construct: purchased Millipore KinaseProfiler

Question: For `Cn1ncc(Cl)c1-c1cc(C(=O)N[C@H](CN)Cc2cccc(F)c2)sc1Cl` [GSK2110183], which inhibition at 0.5 µM (Axl(h)) is on record?
Answer: 6%

Question: What about the inhibition at 10 µM (Axl(h)) of the same molecule?
Answer: 37%

Question: And the inhibition at 0.5 µM (CaMKIIγ(h))?
Answer: 39%

Question: And the inhibition at 10 µM (CaMKIIγ(h))?
Answer: 89%

Question: What about the inhibition at 0.5 µM (cKit(V654A)(h)) of the same molecule?
Answer: -9%

Question: And the inhibition at 10 µM (cKit(V654A)(h))?
Answer: -9%

Question: What about the inhibition at 0.5 µM (ErbB4(h)) of the same molecule?
Answer: -4%

Question: What about the inhibition at 10 µM (ErbB4(h)) of the same molecule?
Answer: 4%

Question: What about the inhibition at 0.5 µM (MAPKAP-K2(h)) of the same molecule?
Answer: -11%

Question: What about the inhibition at 10 µM (MAPKAP-K2(h)) of the same molecule?
Answer: 4%

Question: And the inhibition at 0.5 µM (MELK(h))?
Answer: 79%

Question: And the inhibition at 10 µM (MELK(h))?
Answer: 97%

Question: And the inhibition at 0.5 µM (Met(h))?
Answer: -7%

Question: And the inhibition at 10 µM (Met(h))?
Answer: 11%

Question: What about the inhibition at 0.5 µM (PhKγ2(h)) of the same molecule?
Answer: 31%

Question: What about the inhibition at 10 µM (PhKγ2(h)) of the same molecule?
Answer: 89%

Question: And the inhibition at 0.5 µM (PKCβI(h))?
Answer: 61%

Question: What about the inhibition at 10 µM (PKCβI(h)) of the same molecule?
Answer: 96%

Question: What about the inhibition at 0.5 µM (PKCδ(h)) of the same molecule?
Answer: 48%

Question: And the inhibition at 10 µM (PKCδ(h))?
Answer: 92%

Question: What about the inhibition at 0.5 µM (PKCη(h)) of the same molecule?
Answer: 78%

Question: What about the inhibition at 10 µM (PKCη(h)) of the same molecule?
Answer: 97%

Question: And the inhibition at 0.5 µM (TSSK2(h))?
Answer: 4%

Question: What about the inhibition at 10 µM (TSSK2(h)) of the same molecule?
Answer: 44%

Question: And the inhibition at 0.5 µM (WNK3(h))?
Answer: 0%

Question: And the inhibition at 10 µM (WNK3(h))?
Answer: 16%

Question: What does the source list for `Cn1ncc(Cl)c1-c1cc(C(=O)N[C@H](CN)Cc2ccc(F)c(F)c2)oc1Cl` [GSK2141795]?
Answer: inhibition at 0.5 µM (Axl(h); 0.5 µM, read-out: % Inhibition): -2%; inhibition at 10 µM (Axl(h); 10 µM, read-out: % Inhibition): -6%; inhibition at 0.5 µM (CaMKIIγ(h); 0.5 µM, read-out: % Inhibition): 48%; inhibition at 10 µM (CaMKIIγ(h); 10 µM, read-out: % Inhibition): 92%; inhibition at 0.5 µM (cKit(V654A)(h); 0.5 µM, read-out: % Inhibition): -2%; inhibition at 10 µM (cKit(V654A)(h); 10 µM, read-out: % Inhibition): -3%; inhibition at 0.5 µM (ErbB4(h); 0.5 µM, read-out: % Inhibition): -11%; inhibition at 10 µM (ErbB4(h); 10 µM, read-out: % Inhibition): -5%; inhibition at 0.5 µM (MAPKAP-K2(h); 0.5 µM, read-out: % Inhibition): -6%; inhibition at 10 µM (MAPKAP-K2(h); 10 µM, read-out: % Inhibition): -12%; inhibition at 0.5 µM (MELK(h); 0.5 µM, read-out: % Inhibition): 80%; inhibition at 10 µM (MELK(h); 10 µM, read-out: % Inhibition): 97%; inhibition at 0.5 µM (Met(h); 0.5 µM, read-out: % Inhibition): -28%; inhibition at 10 µM (Met(h); 10 µM, read-out: % Inhibition): -6%; inhibition at 0.5 µM (PhKγ2(h); 0.5 µM, read-out: % Inhibition): 23%; inhibition at 10 µM (PhKγ2(h); 10 µM, read-out: % Inhibition): 88%; inhibition at 0.5 µM (PKCβI(h); 0.5 µM, read-out: % Inhibition): 74%; inhibition at 10 µM (PKCβI(h); 10 µM, read-out: % Inhibition): 97%; inhibition at 0.5 µM (PKCδ(h); 0.5 µM, read-out: % Inhibition): 67%; inhibition at 10 µM (PKCδ(h); 10 µM, read-out: % Inhibition): 85%; inhibition at 0.5 µM (PKCη(h); 0.5 µM, read-out: % Inhibition): 86%; inhibition at 10 µM (PKCη(h); 10 µM, read-out: % Inhibition): 99%; inhibition at 0.5 µM (TSSK2(h); 0.5 µM, read-out: % Inhibition): 7%; inhibition at 10 µM (TSSK2(h); 10 µM, read-out: % Inhibition): 53%; inhibition at 0.5 µM (WNK3(h); 0.5 µM, read-out: % Inhibition): -2%; inhibition at 10 µM (WNK3(h); 10 µM, read-out: % Inhibition): 1%

Source: PMC4076210, “Discovery of Novel AKT Inhibitors with Enhanced Anti-Tumor Effects in Combination with the MEK Inhibitor” (PLoS ONE, 2014)
